Consider 10 compounds from ChEMBL document CHEMBL1201862, “PubChem BioAssay data set” (2004).

“And” between values parts separate entries of the source, which are not always exact repeats. Identical values can stand only once.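 Growth conditions: 96-well plates. Treatment: test compound, 48 hours, 5 concentrations. Analysis: linear interpolation between bracketing concentrations; unreached endpoints set to highest concentration. GI50 is the concentration that inhibits growth by half.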 The source made the active and inactive calls. No stated cut-off is given here; in the data, active = GI50 up to about 1.1 µM and inactive = higher.

Test systems include A549; BT-549; CCRF-CEM; EKVX; HOP-62; Hs-578T; LOX IMVI; M14; MCF7; MDA-MB-231; MDA-MB-435; NCI/ADR-RES; OVCAR-4; SF-268; SF-295; SN12C; SNB-75; SR; TK-10; UO-31.
Holding throughout (experiment): NCI tumour cell line growth inhibition, 48 h

Turning to `O=C(NCc1ccccc1)c1cc2ccccc2o/c1=N\c1cccc(C(F)(F)F)c1`, the GI50 in the assay on A549 is 47.1 µM (inactive); in the assay with BT-549, > 100 µM (inactive); in the assay with CCRF-CEM, 45.1 µM (inactive); with EKVX, > 100 µM (inactive); with HOP-62 it was 85.3 µM (inactive); in the assay on Hs-578T it was > 100 µM (inactive). Also, the GI50 is 35.6 µM (inactive) in the assay on LOX IMVI; 87.3 µM (inactive) in the assay with M14; 42.5 µM (inactive) in the assay on MCF7; 75.7 µM (inactive) in the assay with MDA-MB-231; 46 µM (inactive) with MDA-MB-435; 47.1 µM (inactive) in the assay on NCI/ADR-RES. Besides, the GI50 in the assay with OVCAR-4 was 69.7 µM (inactive); in the assay with SF-268, > 100 µM (inactive); in the assay with SF-295, 51.3 µM (inactive); in the assay on SN12C it was 29.3 µM (inactive); in the assay on SNB-75, 74.8 µM (inactive); in the assay on SR, 21.1 µM (inactive). The GI50 in the assay on TK-10 was 50.4 µM (inactive); with UO-31, 79.1 µM (inactive).

With `Nc1cccc(CCN2CCN(CCCc3ccccc3)CC2)c1`, the GI50 with A549 is 34.4 µM (inactive); in the assay on BT-549 it was 52.5 µM (inactive); in the assay with CCRF-CEM it was 25.8 µM (inactive); in the assay on EKVX it was > 100 µM (inactive); with HOP-62 it was 36.5 µM (inactive); in the assay with Hs-578T it was 25.1 µM (inactive). Moreover, the GI50 was 18.1 µM (inactive) in the assay on LOX IMVI; 17.6 µM (inactive) in the assay with M14; 19.2 µM (inactive) in the assay on MCF7; 36.5 µM (inactive) in the assay with MDA-MB-231; 18.6 µM (inactive) with MDA-MB-435; > 100 µM (inactive) in the assay with NCI/ADR-RES. Moreover, the GI50 is 39.9 µM (inactive) in the assay on OVCAR-4; 58.2 µM (inactive) in the assay on SF-268; 24.8 µM (inactive) in the assay with SF-295; 95.3 µM (inactive) in the assay on SN12C; > 100 µM (inactive) in the assay with SNB-75; 19.2 µM (inactive) with SR. Moreover, the GI50 is 74.1 µM (inactive) in the assay on TK-10 and 26.7 µM (inactive) in the assay with UO-31.

For the compound `CCOC(=O)/C(=C\c1ccc(N(C)C)cc1)S(=O)(=O)C(F)(F)C(F)(F)C(F)(F)C(F)(F)F`, the GI50 with A549 was > 100 µM (inactive); in the assay with BT-549 it was 52.6 µM (inactive); in the assay on CCRF-CEM it was > 100 µM (inactive); in the assay on EKVX, > 100 µM (inactive); with HOP-62, > 100 µM (inactive); in the assay with Hs-578T it was > 100 µM (inactive). In addition, the GI50 in the assay on LOX IMVI, in the assay on M14, in the assay with MCF7, in the assay with MDA-MB-231, with MDA-MB-435 and in the assay with NCI/ADR-RES was > 100 µM (inactive) throughout. Also, the GI50 in the assay on OVCAR-4, with SF-268, with SF-295, with SN12C, with SNB-75 and in the assay on SR was > 100 µM (inactive) throughout. Further, the results for the GI50 in the assay with TK-10 and in the assay with UO-31 were 13 µM (inactive) and 55.1 µM (inactive), respectively.

As to `NC(=S)Nc1ccc2c(c1)oc1ccccc12`, the GI50 with A549 was > 100 µM (inactive); with BT-549 it was > 100 µM (inactive); with CCRF-CEM, 9.91 µM (inactive); in the assay on EKVX it was 10.4 µM (inactive); in the assay with HOP-62 it was > 100 µM (inactive); in the assay on Hs-578T, > 100 µM (inactive). Further, the GI50 is > 100 µM (inactive) with LOX IMVI; > 100 µM (inactive) in the assay with M14; 8.73 µM (inactive) in the assay on MCF7; > 100 µM (inactive) in the assay on MDA-MB-231; > 100 µM (inactive) in the assay with MDA-MB-435; > 100 µM (inactive) with NCI/ADR-RES. In addition, the GI50 with OVCAR-4, with SF-268, in the assay with SF-295, in the assay on SN12C, with SNB-75 and in the assay with SR was > 100 µM (inactive) in each case. The GI50 in the assay on TK-10 was > 100 µM (inactive); in the assay on UO-31 it was > 28.4 µM (inactive).

For the compound `CN1CSC(=S)N(c2c3ccccc3nc3ccc(Br)cc23)C1`, the GI50 was 6.22 µM (inactive) in the assay on A549; 15.4 µM (inactive) in the assay on BT-549; 4.08 µM (inactive) in the assay with CCRF-CEM; 12.9 µM (inactive) in the assay on EKVX; 7.87 µM (inactive) with HOP-62; 17.8 µM (inactive) in the assay on Hs-578T. For the same compound, the GI50 with LOX IMVI is 7.83 µM (inactive); in the assay with M14 it was 13.1 µM (inactive); in the assay on MCF7, 5.83 µM (inactive); with MDA-MB-231 it was 8.45 µM (inactive); with MDA-MB-435 it was 8.67 µM (inactive); with NCI/ADR-RES, 7.67 µM (inactive). Besides, the GI50 with OVCAR-4 is 7.11 µM (inactive); in the assay on SF-268 it was 9.64 µM (inactive); with SF-295 it was 6.7 µM (inactive); in the assay with SN12C, 5.31 µM (inactive); in the assay on SNB-75 it was 8.99 µM (inactive); in the assay with SR, 0.796 µM (active). Also, the GI50 in the assay with TK-10 is 9.51 µM (inactive); in the assay with UO-31 it was 9.06 µM (inactive).

For the compound `COc1ccc(/C=C2\CCC(CN(C)C)C2=O)cc1` (stereo not drawn), the GI50 in the assay with A549 is 12.2 µM (inactive); in the assay on BT-549 it was 3.26 µM (inactive); in the assay with CCRF-CEM it was 2.26 µM (inactive); in the assay on EKVX it was 17.8 µM (inactive); in the assay with HOP-62, 12.2 µM (inactive); in the assay with Hs-578T it was 3.82 µM (inactive). Also, the GI50 in the assay with LOX IMVI is 1.93 µM (inactive); in the assay on M14, 2.54 µM (inactive); in the assay with MCF7, 1.95 µM (inactive); in the assay with MDA-MB-231, 1.99 µM (inactive); in the assay with MDA-MB-435, 1.88 µM (inactive); with NCI/ADR-RES, 2.36 µM (inactive). Also, the GI50 was 8.34 µM (inactive) in the assay with OVCAR-4; 9.71 µM (inactive) with SF-268; 17.9 µM (inactive) in the assay with SF-295; 5.83 µM (inactive) in the assay with SN12C; 12.4 µM (inactive) with SNB-75; 1.26 µM (inactive) in the assay with SR. The GI50 in the assay on TK-10 is 5.98 µM (inactive); in the assay with UO-31, 8.59 µM (inactive).

For the compound `Cc1cc(-c2cc(C)c(O)c(C(C)(C)C)c2)cc(C(C)(C)C)c1O`, the GI50 in the assay on A549 is 9.27 µM (inactive) and 9.59 µM (inactive); in the assay with BT-549, 14.1 µM (inactive) and 13.1 µM (inactive); with CCRF-CEM, 5.69 µM (inactive) and 5.58 µM (inactive); with EKVX it was 14.8 µM (inactive) and 10.8 µM (inactive); in the assay with HOP-62, 17.8 µM (inactive) and 17.3 µM (inactive); in the assay with Hs-578T, 12.8 µM (inactive) and 15.3 µM (inactive). Further, the GI50 was 10.1 µM (inactive) and 11.5 µM (inactive) with LOX IMVI; 10.6 µM (inactive) and 12.8 µM (inactive) with M14; 5.02 µM (inactive) and 6.62 µM (inactive) in the assay on MCF7; 9.55 µM (inactive) and 12.9 µM (inactive) in the assay with MDA-MB-231; 11.5 µM (inactive) and 14.8 µM (inactive) in the assay on MDA-MB-435; 11 µM (inactive) and 14 µM (inactive) with NCI/ADR-RES. Further, the GI50 in the assay on OVCAR-4 is 12.4 µM (inactive) and 11.6 µM (inactive); in the assay with SF-268, 13.9 µM (inactive) and 11.7 µM (inactive); in the assay on SF-295, 9.82 µM (inactive) and 11.1 µM (inactive); in the assay on SN12C it was 13.4 µM (inactive) and 12.3 µM (inactive); with SNB-75, 14 µM (inactive) and 12.6 µM (inactive); in the assay with SR, 4.09 µM (inactive). In addition, the GI50 with TK-10 is 11.2 µM (inactive) and 12.1 µM (inactive); with UO-31, 11 µM (inactive) and 18.1 µM (inactive).

As for `COC1=C(OC)C(=O)c2cc(C)c(=O)c(C)cc2C1=O`, the GI50 with A549 is 20.2 µM (inactive); in the assay on BT-549, 15.2 µM (inactive); in the assay on CCRF-CEM it was 2.45 µM (inactive); with EKVX, 17.3 µM (inactive); in the assay on HOP-62, 21.3 µM (inactive); in the assay on Hs-578T, 23.1 µM (inactive). Besides, the GI50 in the assay with LOX IMVI was 11.2 µM (inactive); with M14 it was 16.9 µM (inactive); in the assay on MCF7 it was 17.9 µM (inactive); in the assay with MDA-MB-231, 7.94 µM (inactive); with MDA-MB-435 it was 1.8 µM (inactive); with NCI/ADR-RES, 17 µM (inactive). For the same compound, the GI50 in the assay on OVCAR-4 was 2.83 µM (inactive); in the assay with SF-268, 13.6 µM (inactive); in the assay with SF-295, 32.6 µM (inactive); with SN12C it was 2.81 µM (inactive); with SNB-75, 18.4 µM (inactive); with SR it was 2.65 µM (inactive). The GI50 is 19.1 µM (inactive) in the assay with TK-10 and 13.8 µM (inactive) in the assay on UO-31.

`Nc1ncc(Br)c(NCC2(CO)CCC2)n1`: the GI50 is > 100 µM (inactive) with A549; > 100 µM (inactive) in the assay on BT-549; > 100 µM (inactive) in the assay with CCRF-CEM; 58.5 µM (inactive) in the assay with EKVX; > 100 µM (inactive) in the assay on HOP-62; > 100 µM (inactive) in the assay on Hs-578T. Besides, the GI50 in the assay with LOX IMVI is > 100 µM (inactive); with MCF7, > 100 µM (inactive); in the assay with MDA-MB-231 it was > 100 µM (inactive); in the assay on MDA-MB-435 it was > 100 µM (inactive); with NCI/ADR-RES, 95.5 µM (inactive); in the assay with OVCAR-4, > 100 µM (inactive). Also, the GI50 was > 100 µM (inactive) in the assay on SF-268; 97.1 µM (inactive) with SF-295; > 100 µM (inactive) with SN12C; > 100 µM (inactive) in the assay on SNB-75; > 100 µM (inactive) with SR; > 100 µM (inactive) with TK-10. Further, the GI50 in the assay with UO-31 was 79.6 µM (inactive).

As for `Oc1nc2ccccc2c(O)c1Cc1ccccc1`, the GI50 with A549, in the assay on BT-549, in the assay with CCRF-CEM, in the assay with EKVX, with HOP-62 and with Hs-578T was > 100 µM (inactive) each time. The GI50 in the assay on LOX IMVI, with MCF7, in the assay with MDA-MB-231, in the assay on MDA-MB-435, in the assay with NCI/ADR-RES and in the assay on OVCAR-4 was > 100 µM (inactive) in each case. Also, the GI50 with SF-268, in the assay on SF-295, with SN12C, with SNB-75, in the assay with SR and with TK-10 was > 100 µM (inactive) throughout. For the same compound, the GI50 in the assay on UO-31 is > 10 µM (inactive).
